Tests used:
Assay in all cases: relative viability (nuclei count vs DMSO), 5 days (fraction); higher = more cells survive
Bexarotene = compound: C=C(c1ccc(C(=O)O)cc1)c1cc2c(cc1C)C(C)(C)CCC2(C)C [Bexarotene]
Procedure, shortened: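 Viability is treated-well nuclei as a fraction of vehicle-well nuclei, reported as the median across plates. Before counting, lung cancer cell lines were kept overnight at 37 °C in 1536-well plates, pinned with five √10-spaced library-drug doses on vehicle-anchored plates, and left 5 days without medium change, then fixed, permeabilised and Hoechst-stained in one step, imaged at 4× and counted by MetaXpress. A plate passed only if control CV was below 25% and at least one doubling occurred.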

Bexarotene + Trametinib = compound: C=C(c1ccc(C(=O)O)cc1)c1cc2c(cc1C)C(C)(C)CCC2(C)C [Bexarotene] + CC(=O)Nc1cccc(-n2c(=O)n(C3CC3)c(=O)c3c(Nc4ccc(I)cc4F)n(C)c(=O)c(C)c32)c1 [Trametinib] (partner 0.02 µM)
Procedure, shortened: (§1)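 Each reported value is a median over duplicate plates. It expresses relative viability: treated-well nuclei count divided by vehicle-well nuclei count. Lung cancer cell lines in 1536-well plates were dosed by pin tool a day after seeding, alone with one drug or with a fixed anchor-drug dose plus five library-drug doses (not always all listed) in √10 steps, and nuclei were counted after 5 days.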

Bexarotene + Phenformin = compound: C=C(c1ccc(C(=O)O)cc1)c1cc2c(cc1C)C(C)(C)CCC2(C)C [Bexarotene] + N=C(N)NC(=N)NCCc1ccccc1 [Phenformin] (partner 250 µM)
Procedure, shortened: as §1

Bexarotene + Olaparib = compound: C=C(c1ccc(C(=O)O)cc1)c1cc2c(cc1C)C(C)(C)CCC2(C)C [Bexarotene] + O=C(c1cc(Cc2n[nH]c(=O)c3ccccc23)ccc1F)N1CCN(C(=O)C2CC2)CC1 [Olaparib] (partner 8 µM)
Procedure, shortened: as §1

Cell Line	relative viability (Bexarotene; 0.08 µM)	relative viability (Bexarotene; 0.253 µM)	relative viability (Bexarotene; 0.8 µM)	relative viability (Bexarotene; 2.53 µM)	relative viability (Bexarotene; 8 µM)	relative viability (Bexarotene + Trametinib; first compound 0.08 µM)	relative viability (Bexarotene + Trametinib; first compound 0.253 µM)	relative viability (Bexarotene + Trametinib; first compound 0.8 µM)	relative viability (Bexarotene + Trametinib; first compound 2.53 µM)	relative viability (Bexarotene + Trametinib; first compound 8 µM)	relative viability (Bexarotene + Phenformin; first compound 0.08 µM)	relative viability (Bexarotene + Phenformin; first compound 0.253 µM)	relative viability (Bexarotene + Phenformin; first compound 0.8 µM)	relative viability (Bexarotene + Phenformin; first compound 2.53 µM)	relative viability (Bexarotene + Phenformin; first compound 8 µM)	relative viability (Bexarotene + Olaparib; first compound 0.08 µM)	relative viability (Bexarotene + Olaparib; first compound 0.253 µM)	relative viability (Bexarotene + Olaparib; first compound 0.8 µM)	relative viability (Bexarotene + Olaparib; first compound 2.53 µM)	relative viability (Bexarotene + Olaparib; first compound 8 µM)
HCC-827	1.09	0.993	0.961	1.05	0.937	0.525	0.576	0.493	0.496	0.51	0.51	0.444	0.493	0.463	0.444	0.714	0.637	0.763	0.666	0.625
ChaGo-K-1	1.09	1.01	1	1.03	0.989	1.02	1.02	0.978	1.05	0.932	0.563	0.496	0.539	0.533	0.536	0.411	0.413	0.408	0.395	0.42
NCI-H2228	1.02	1.24	1.03	0.819	0.947	0.54	0.641	0.389	0.457	0.417	0.31	0.372	0.276	0.264	0.3	0.825	0.799	0.631	0.591	0.492
NCI-H2170	0.96	0.969	0.942	0.909	0.831	0.901	0.916	0.886	0.785	0.768	0.457	0.403	0.388	0.357	0.361	0.576	0.645	0.574	0.609	0.562
EMC-BAC-2	1.15	1.02	1		1.02	1.08	0.901	0.996		0.88	0.549	0.575	0.521	0.49	0.546	0.522	0.514	0.504		0.515
NCI-H2342	1.01	0.797	0.965	1.04	1.06	0.927	0.767	0.794	0.825	0.745	0.62	0.544	0.605	0.647	0.72	0.425	0.52	0.481	0.407	0.583
NCI-H23	1.17	0.927	0.952	0.82	0.899	0.447	0.435	0.395	0.364	0.347	0.854	0.759	0.694	0.763	0.712	0.344	0.341	0.289	0.294	0.3
RERF-LC-KJ	0.96	0.969	0.909	0.87	0.847	0.879	0.85	0.814	0.873	0.799	0.407	0.405	0.402	0.364	0.426	0.991	0.885	0.812	0.888	0.865
NCI-H358	1.04	1.14	0.871	0.974	1.05	0.134	0.12	0.111	0.119	0.123	0.48	0.396	0.372	0.33	0.39	0.855	0.596	0.573	0.625	0.551
LC-2-ad	0.989	1.08	1.06	1	0.98	1.06	0.941	0.96	0.968	0.948	0.607	0.578	0.611	0.521	0.546	0.711	0.693	0.663	0.541	0.661
HCC-15	1.1	1.11	1.02	0.978	1.05	0.372	0.431	0.371	0.371	0.365	0.524	0.533	0.472	0.496	0.475	0.666	0.703	0.721	0.654	0.689
NCI-H2405	1.12	1.01	0.857	0.97	0.986	0.823	0.819	0.66	0.749	0.693	0.448	0.443	0.296	0.408	0.36	0.93	0.849	0.7	0.852	0.83
LXF-289	1.19	1.18	1.16	1.17	1.29	0.797	0.832	0.792	0.755	0.747	0.591	0.544	0.523	0.516	0.508	1.21	1.16	1.1	1.06	1.2
CAL-12T	0.989	0.992	0.981	0.844	0.917	0.349	0.286	0.319	0.233	0.319	0.578	0.511	0.572	0.513	0.519	0.728	0.64	0.658	0.648	0.67
COR-L23	1.16	0.979	0.936	0.874	0.951	0.747	0.72	0.501	0.553	0.547	0.411	0.512	0.395	0.383	0.364	0.344	0.365	0.323	0.373	0.301
NCI-H1755	1.07	1.15	1.06	0.998	0.982	0.849	0.864	0.834	0.773	0.718	0.717	0.679	0.623	0.601	0.622	0.982	0.957	1.03	0.951	0.887
